US8486863B2, “Activators of lateral root formation” (VIB VZW, priority 2006, dated 2013)

What was measured:
[1] = tested on: auxin receptor mutant tir1; assay: Effect of activators on the auxin receptor mutant tir1 compared with wild type; type: in vivo, Arabidopsis thaliana; settings: tir1 mutant vs wild type, FIG. 13
From the text: FIG. 13: Effect of activators on the auxin receptor mutant TIR1 compared with wild type.

auxin signaling mutants = assay: Effect of activators on lateral root density of auxin signaling mutants (Table 2); type: in vivo, Arabidopsis thaliana
From the text: Afb1, Afb2, Afb3 and the triple mutant Tirlafb2afb3 were described by Dhamasiri et al. (2005). Tir1 was described by Ruegger et al., (1998); 1aa28 by Rogg et al., (2001); Tir7-1 by Ruegger et al., (1997); the Cyp79b2b3 double mutant by Ljung et al. (2005); the arf7arf19 double mutant by Fukaki et al., (2005); Aux1 by Bennett et al., (1996); Xbat32 by Nodzon et al., (2004), Axr1-12 by Timpte et al., (1995), Slr1 by Fukaki et al., 2002 and Axr3-1 by Collet et al., (2000) and the mutants were obtained from the publishing authors.
For phenotypic analysis, all mutants were grown on vertically oriented square plates (Greiner Labortechnik, Austria) with solid medium derived from standard MS medium. The plates were put in a growth chamber under continuous light (110 μE.m2.s1 photosynthetically active radiation, supplied by cool-white fluorescent tungsten tubes; Osram) at 22° C. Three days after germination, the mutant plants were transferred to medium supplemented with compounds and were left to grow for another 7 days. After this, root length and number of lateral roots were counted using ImageJ 1.34 freeware.

[2] = tested on: Wild-type Arabidopsis thaliana; assay: Dose-response analysis of lateral root density and root length; type: in vivo; settings: for potency as activator of LR development (LR density): dose-response, FIG. 3
Protocol: FIG. 3: Dose-response analysis of class 1 (upper panel) and class 2 (lower panel) activators. Wild-type Arabidopsis thaliana seeds were germinated under standard conditions on agar plates. After 3 days of germination, seedlings were transferred to agar plates containing compound at different concentrations. Lateral root density was measured 10 days after germination. Bars represent standard errors.
FIG. 4: Dose-response analysis of A2, A11, A12, A14 and NAA. Wild-type Arabidopsis thaliana seeds were germinated under standard conditions on agar plates. After 3 days of germination, seedlings were transferred to agar plates containing compound at different concentrations and 1% DMSO. Plants transferred to agar plates containing 1% DMSO and no compound were used as controls. Lateral root density (left panels) and root length (right panels) were measured 10 days after germination. Bars represent standard errors.
For further phenotypic analysis, all plants were grown on vertically oriented square plates (Greiner Labortechnik, Austria) with solid medium derived from standard MS medium under the same conditions. 3 DAG plants were transferred to medium supplemented with compounds and were left to grow for another 7 days. After this, root length and number of LRs were counted using ImageJ 1.34 freeware.
As a subsequent step, the phenotypic effect of the 16 selected activators was determined in a dose-response analysis in which LR density (number of LRs per cm) was quantified (FIG. 3). Based upon potency and structure, two different classes of activators could be identified.

[3] = tested on: genes involved in auxin biosynthesis, auxin transport, auxin signaling and cell cycle; assay: Q-PCR transcript profiling of roots after compound treatment; type: in vivo, Arabidopsis thaliana; settings: 30 μM; 6 hrs or 24 hrs treatment
Protocol: FIG. 5: Transcript profiling of roots of wild-type Arabidopsis thaliana plants after 6 hrs or 24 hrs treatment with A2 (upper panel), A14 (middle panel) or A11 (lower panel) at a concentration of 30 μM.
RNA was extracted with the RNeasy kit. Poly(dT) cDNA was prepared from […] of total RNA with Superscript III reverse transcriptase (Invitrogen) and quantified on an LightCycler 480 apparatus (Roche) with the SYBR Green I Master kit (Roche) according to the manufacturers instructions. Target quantifications were performed with specific primer pairs designed with the Beacon Designer 4.0 (Premier Biosoft International). All PCRs were performed in triplicate. […] The primers used to quantify gene expression levels were: […]
Using Q-PCR, the expression of selected genes involved in auxin biosynthesis, auxin transport, auxin signaling and cell cycle was analyzed in response to compound treatment (FIG. 5).

auxin receptor TIR1 = molecular target: T1, auxin receptor TIR1 (Arabidopsis thaliana, UniProt Q38825+Q570C0); assay: In vitro pull-down binding assay to auxin receptor TIR1; settings: in vitro binding assay (FIG. 2)
T1 construct: made in house; host or cells: wheat germ in vitro transcription/translation (IVTT) extract
Protocol: FIG. 2: In vitro binding assay to analyze binding of the 16 selected activators to the auxin receptor TIR1.
Pull-down assays with wheatgerm-expressed TIR1-Myc were performed by combining […] of IVTT reaction extract with […] of biotinylated domain II peptide and […] of EB containing 1 mg/ml BSA with auxin treatments as indicated. The assays were incubated for 30 min at 4° C. and recovered on streptavidin-agarose. The final processing of pull-down assays including electrophoresis, western transfer and blotting with anti-Myc antibodies has been described in Kepinski and Leyser, 2004.
Earlier studies have shown that sirtinol is metabolized in vivo to NAA (Dai et al., 2005) while IAA, NAA, 2,4-D act by binding directly to the auxin-receptor TIR1 (Kepinski and Leyser, 2005).

T1 sequence (Q570C0 whole entry, other chains not shown): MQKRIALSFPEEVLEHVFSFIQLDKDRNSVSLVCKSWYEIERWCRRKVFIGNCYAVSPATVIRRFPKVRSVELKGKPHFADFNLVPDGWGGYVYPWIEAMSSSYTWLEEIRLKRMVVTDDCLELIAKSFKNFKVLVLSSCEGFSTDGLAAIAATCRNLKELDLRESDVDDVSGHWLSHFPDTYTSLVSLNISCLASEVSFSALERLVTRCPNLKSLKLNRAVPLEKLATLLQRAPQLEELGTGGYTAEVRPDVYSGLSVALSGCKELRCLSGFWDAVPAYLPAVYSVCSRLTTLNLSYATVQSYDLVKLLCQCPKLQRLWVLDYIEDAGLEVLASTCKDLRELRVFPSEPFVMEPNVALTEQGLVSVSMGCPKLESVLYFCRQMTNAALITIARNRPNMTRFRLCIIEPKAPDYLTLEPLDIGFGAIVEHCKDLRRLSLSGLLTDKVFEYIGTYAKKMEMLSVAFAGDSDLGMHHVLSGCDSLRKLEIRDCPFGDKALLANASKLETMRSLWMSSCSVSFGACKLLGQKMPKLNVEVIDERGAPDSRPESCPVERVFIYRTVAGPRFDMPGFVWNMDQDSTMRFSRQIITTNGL

Row | Compound | TIR1 dependence of the working of the compound [1] | potency as activator of LR development (LR density) [2] | stage of LR initiation at which the effect on gene expression is exerted [3] | lateral root density (auxin signaling mutants; Afb1-1, 30 uM) [LR/cm] | lateral root density (auxin signaling mutants; Afb2-1, 30 uM) [LR/cm] | lateral root density (auxin signaling mutants; Afb3-1, 30 uM) [LR/cm] | lateral root density (auxin signaling mutants; Arf7Arf19, 30 uM) [LR/cm] | lateral root density (auxin signaling mutants; Arf16, 30 uM) [LR/cm] | lateral root density (auxin signaling mutants; Arf17, 30 uM) [LR/cm] | lateral root density (auxin signaling mutants; Axrt-12, 30 uM) [LR/cm] | lateral root density (auxin signaling mutants; Cyp79, 30 uM) [LR/cm] | lateral root density (auxin signaling mutants; Iaa28-1, 30 uM) [LR/cm] | lateral root density (auxin signaling mutants; Tir1-1, 30 uM) [LR/cm] | lateral root density (auxin signaling mutants; Tir7-1, 30 uM) [LR/cm] | lateral root density (auxin signaling mutants; TirTM, 30 uM) [LR/cm] | lateral root density (auxin signaling mutants; Xbat32, 30 uM) [LR/cm] | further results
1 | COc1cc(-c2nc3ccccn3c2N=Cc2cccc(Cl)c2Cl)ccc1O [A10, 4-{3-[(2,3-dichlorobenzylidene)amino]imidazo[1,2-a]pyridin-2-yl}-2-methoxyphenol] | strictly TIR1 dependent | – | – | – | – | – | – | – | – | – | – | – | – | – | – | – | lateral root density (auxin signaling mutants; Afb1-1, 3 uM): 11.79 LR/cm; lateral root density (auxin signaling mutants; Afb2-1, 3 uM): 15.90 LR/cm; lateral root density (auxin signaling mutants; Afb3-1, 3 uM): 17.08 LR/cm; lateral root density (auxin signaling mutants; Arf7Arf19, 3 uM): 0.00 LR/cm; lateral root density (auxin signaling mutants; Arf16, 3 uM): 19.95 LR/cm; lateral root density (auxin signaling mutants; Arf17, 3 uM): 10.80 LR/cm; lateral root density (auxin signaling mutants; Axrt-12, 3 uM): 7.90 LR/cm; lateral root density (auxin signaling mutants; Cyp79, 3 uM): 33.08 LR/cm; lateral root density (auxin signaling mutants; Iaa28-1, 3 uM): 0.00 LR/cm; lateral root density (auxin signaling mutants; Tir1-1, 3 uM): 0.77 LR/cm; lateral root density (auxin signaling mutants; Tir7-1, 3 uM): 8.49 LR/cm; lateral root density (auxin signaling mutants; TirTM, 3 uM): 0.00 LR/cm; lateral root density (auxin signaling mutants; Xbat32, 3 uM): 8.37 LR/cm
2 | COc1ccccc1CNC(=O)C(C)Sc1ccc(Cl)cc1 (stereo not drawn) [A14, 2-[(4-chlorophenyl)thio]-N-(2-methoxybenzyl)propanamide] | strictly TIR1 dependent | most potent activators of class 2 | early stages of LR initiation (6 h) | 24.29 | 22.38 | 30.09 | 0.00 | 32.75 | 32.68 | 34.01 | 33.25 | 20.71 | 0.52 | 33.41 | 0.00 | 10.88 | –
3 | CCOC(=O)c1c(NC(=O)COc2ccc(Cl)cc2C)sc2c1CC(C)(C)OC2 [A2, ethyl 2-{[(4-chloro-2-methylphenoxy)acetyl]amino}-5,5-dimethyl-4,7-dihydro-5H-thieno[2,3-c]pyran-3-carboxylate] | – | most potent activators of class 2 | early stages of LR initiation (6 h) | 13.86 | 10.07 | 10.03 | 0.00 | 9.56 | 8.67 | 13.97 | 13.69 | 4.32 | 11.98 | 28.57 | 0.00 | 9.67 | –
4 | CN1C(=O)C(=Cc2ccc(-c3cccc(C(F)(F)F)c3)o2)SC1=S [A11, 3-methyl-2-thioxo-5-({5-[3-(trifluoromethyl)phenyl]-2-furyl}methylene)-1,3-thiazolidin-4-one] | – | most potent activators of class 2 | late stages of LR initiation (24 h) | 20.74 | 14.04 | 12.99 | 0.04 | 8.76 | 11.04 | 12.26 | 13.74 | 10.36 | 8.95 | 43.59 | 0.00 | 7.76 | compound concentration that increased root density five times compared to controls ([2]; FIG. 4, 10 days after germination): 20 µM; Root length ([2]; at the concentration that increased root density five times (20 μM A11, 1.5 μM NAA)): 0.7 times the root length of controls
5 | O=C(O)C1SCCN1c1ccccc1 (stereo not drawn) [A15, 3-phenyl-1,3-thiazolidine-2-carboxylic acid] | – | – | – | – | – | – | – | – | – | – | – | – | – | – | – | – | binding to TIR1 (auxin receptor TIR1): could bind to TIR1
